In ChEMBL document CHEMBL4613209, “Quinolone hybrids and their anti-cancer activities: An overview” (Eur J Med Chem, 2019):
pIC50: −log10 of the molar value.

Legend:
[1] = test system: T47D; assay: Cytotoxicity against human T47D cells assessed as reduction in cell viability after 48 hrs by MTT assay; format: functional, cell-based
[2] = test system: MCF7; assay: Cytotoxicity against human MCF7 cells assessed as reduction in cell viability after 48 hrs by MTT assay; format: functional, cell-based; conditions: MCF7, 48 h
[3] = test system: MDA-MB-231; assay: Cytotoxicity against human MDA-MB-231 cells assessed as reduction in cell viability after 48 hrs by MTT assay; format: functional, cell-based; conditions: MDA-MB-231, 48 h
[4] = test system: MCF7; assay: Cytotoxicity against human MCF7 cells assessed as reduction in cell viability after 72 hrs by MTT assay; format: functional, cell-based; conditions: MCF7, 72 h
[5] = test system: A 172; assay: Cytotoxicity against human A172 cells assessed as reduction in cell viability after 72 hrs by MTT assay; format: functional, cell-based; conditions: A 172, 72 h
[6] = test system: KB; assay: Cytotoxicity against human KB cells assessed as reduction in cell viability after 72 hrs by MTT assay; format: functional, cell-based
[7] = test system: ACHN; assay: Cytotoxicity against human ACHN cells assessed as reduction in cell viability after 72 hrs by MTT assay; format: functional, cell-based
[8] = test system: A549; assay: Cytotoxicity against human A549 cells assessed as reduction in cell viability after 72 hrs by MTT assay; format: functional, cell-based; conditions: A549, 72 h
[9] = test system: SK-MEL3; assay: Cytotoxicity against human SK-MEL-3 cells assessed as reduction in cell viability after 72 hrs by MTT assay; format: functional, cell-based; conditions: SK-MEL3, 72 h
[10] = test system: A2780; assay: Cytotoxicity against human A2780 cells assessed as reduction in cell viability after 72 hrs by MTT assay; format: functional, cell-based; conditions: A2780, 72 h
[11] = target: RAC-gamma serine/threonine-protein kinase (Homo sapiens, UniProt Q9Y243); assay: Inhibition of PKBgamma (unknown origin)
Sequence of RAC-gamma serine/threonine-protein kinase (Q9Y243 whole entry): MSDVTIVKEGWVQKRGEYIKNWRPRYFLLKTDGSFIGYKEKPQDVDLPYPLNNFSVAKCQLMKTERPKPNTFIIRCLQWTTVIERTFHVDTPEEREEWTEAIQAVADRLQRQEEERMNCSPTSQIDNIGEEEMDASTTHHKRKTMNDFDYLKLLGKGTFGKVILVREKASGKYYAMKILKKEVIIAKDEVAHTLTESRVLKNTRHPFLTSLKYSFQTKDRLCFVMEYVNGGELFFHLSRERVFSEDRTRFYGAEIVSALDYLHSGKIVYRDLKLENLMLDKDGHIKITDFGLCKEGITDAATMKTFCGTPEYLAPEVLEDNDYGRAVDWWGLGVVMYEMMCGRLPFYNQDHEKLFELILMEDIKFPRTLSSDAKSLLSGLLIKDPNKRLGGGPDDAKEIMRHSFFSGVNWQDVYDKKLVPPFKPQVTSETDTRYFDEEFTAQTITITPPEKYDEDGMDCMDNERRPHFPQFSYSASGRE

[12] = target: RAC-beta serine/threonine-protein kinase (Homo sapiens, UniProt P31751); assay: Inhibition of PKBbeta (unknown origin)
Sequence of RAC-beta serine/threonine-protein kinase (P31751 whole entry): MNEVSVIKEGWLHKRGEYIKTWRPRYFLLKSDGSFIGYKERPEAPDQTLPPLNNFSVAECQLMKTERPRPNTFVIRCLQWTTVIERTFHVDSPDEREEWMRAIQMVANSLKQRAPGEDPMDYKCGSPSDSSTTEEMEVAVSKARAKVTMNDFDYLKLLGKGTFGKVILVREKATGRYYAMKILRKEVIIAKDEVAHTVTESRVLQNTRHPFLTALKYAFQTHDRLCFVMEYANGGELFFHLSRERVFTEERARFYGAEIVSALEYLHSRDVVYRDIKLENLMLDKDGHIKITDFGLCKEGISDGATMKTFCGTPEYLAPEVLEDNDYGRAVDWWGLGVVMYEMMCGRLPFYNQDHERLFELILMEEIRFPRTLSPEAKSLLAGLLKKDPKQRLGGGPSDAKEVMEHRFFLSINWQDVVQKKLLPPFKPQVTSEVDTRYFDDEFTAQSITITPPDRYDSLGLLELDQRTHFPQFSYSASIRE

[13] = target: T1, Inhibitor of nuclear factor kappa-B kinase subunit beta (Homo sapiens, UniProt O14920); assay: Inhibition of IKKbeta (unknown origin)
T1 sequence (O14920 whole entry): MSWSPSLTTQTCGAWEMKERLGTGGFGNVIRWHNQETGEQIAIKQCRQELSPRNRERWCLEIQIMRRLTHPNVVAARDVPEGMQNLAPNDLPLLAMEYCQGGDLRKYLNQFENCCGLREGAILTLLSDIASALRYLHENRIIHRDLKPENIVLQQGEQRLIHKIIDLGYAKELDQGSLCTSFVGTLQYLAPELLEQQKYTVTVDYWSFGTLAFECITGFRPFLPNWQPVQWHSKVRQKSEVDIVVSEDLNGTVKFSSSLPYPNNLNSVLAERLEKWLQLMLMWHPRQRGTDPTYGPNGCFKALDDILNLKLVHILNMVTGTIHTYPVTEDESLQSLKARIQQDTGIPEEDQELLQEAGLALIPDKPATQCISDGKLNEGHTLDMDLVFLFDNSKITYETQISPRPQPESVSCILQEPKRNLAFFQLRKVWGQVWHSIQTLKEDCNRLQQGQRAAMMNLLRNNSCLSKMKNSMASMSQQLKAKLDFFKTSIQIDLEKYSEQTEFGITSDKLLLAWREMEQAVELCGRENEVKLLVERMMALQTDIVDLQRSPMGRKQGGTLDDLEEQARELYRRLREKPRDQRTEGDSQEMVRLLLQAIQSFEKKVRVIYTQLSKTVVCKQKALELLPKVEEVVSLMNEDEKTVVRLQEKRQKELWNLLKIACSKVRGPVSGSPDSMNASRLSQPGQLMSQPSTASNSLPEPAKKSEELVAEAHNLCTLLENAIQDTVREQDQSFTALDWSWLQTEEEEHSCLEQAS

[14] = target: RAC-alpha serine/threonine-protein kinase (Homo sapiens, UniProt P31749); assay: Inhibition of PKBalpha (unknown origin)
Sequence of RAC-alpha serine/threonine-protein kinase (P31749 whole entry): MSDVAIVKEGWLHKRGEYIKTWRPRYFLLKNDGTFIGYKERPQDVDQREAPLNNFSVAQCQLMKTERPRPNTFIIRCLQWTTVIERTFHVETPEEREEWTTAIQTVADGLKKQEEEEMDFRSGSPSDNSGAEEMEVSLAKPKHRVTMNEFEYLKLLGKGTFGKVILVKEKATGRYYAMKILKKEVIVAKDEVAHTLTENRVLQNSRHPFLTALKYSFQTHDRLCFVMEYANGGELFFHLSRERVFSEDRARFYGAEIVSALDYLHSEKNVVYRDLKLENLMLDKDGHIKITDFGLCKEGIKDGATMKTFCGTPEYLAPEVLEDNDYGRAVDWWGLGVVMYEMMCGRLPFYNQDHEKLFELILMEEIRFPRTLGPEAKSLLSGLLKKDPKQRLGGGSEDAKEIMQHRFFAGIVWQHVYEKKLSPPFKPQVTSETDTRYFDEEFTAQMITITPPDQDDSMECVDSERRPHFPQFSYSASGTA

[15] = target: T2, Inhibitor of nuclear factor kappa-B kinase subunit alpha (Homo sapiens, UniProt O15111); assay: Inhibition of IKKalpha (unknown origin)
T2 sequence (O15111 whole entry): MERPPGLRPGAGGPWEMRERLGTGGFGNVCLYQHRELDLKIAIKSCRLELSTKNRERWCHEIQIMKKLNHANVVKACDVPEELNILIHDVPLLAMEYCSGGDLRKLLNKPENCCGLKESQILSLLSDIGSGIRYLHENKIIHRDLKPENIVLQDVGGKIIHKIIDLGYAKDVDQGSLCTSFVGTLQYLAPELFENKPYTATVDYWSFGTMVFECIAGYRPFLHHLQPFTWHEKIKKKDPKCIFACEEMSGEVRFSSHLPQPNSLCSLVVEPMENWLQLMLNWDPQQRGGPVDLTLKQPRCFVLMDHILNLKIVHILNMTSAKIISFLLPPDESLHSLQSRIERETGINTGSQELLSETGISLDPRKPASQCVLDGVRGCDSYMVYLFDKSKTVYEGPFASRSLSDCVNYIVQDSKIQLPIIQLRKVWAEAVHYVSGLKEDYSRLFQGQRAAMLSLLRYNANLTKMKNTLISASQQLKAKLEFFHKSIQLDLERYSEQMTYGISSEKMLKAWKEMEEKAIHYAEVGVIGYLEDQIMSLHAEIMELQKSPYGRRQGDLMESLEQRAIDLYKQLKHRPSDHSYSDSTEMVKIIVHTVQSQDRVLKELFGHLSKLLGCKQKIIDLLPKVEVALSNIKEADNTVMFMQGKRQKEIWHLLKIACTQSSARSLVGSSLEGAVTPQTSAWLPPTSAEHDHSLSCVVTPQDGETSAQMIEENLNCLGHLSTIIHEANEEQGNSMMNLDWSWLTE

Compound | pIC50 [1] | pIC50 [2] | pIC50 [3] | pIC50 [4] | pIC50 [5] | pIC50 [6] | pIC50 [7] | pIC50 [8] | pIC50 [9] | pIC50 [10] | pIC50 [11] | pIC50 [12] | pIC50 [13] | pIC50 [14] | pIC50 [15]
COc1ccc(Cn2cc(Cn3c4ccccc4c(=O)c4cc(OC)ccc43)nn2)cc1 | 4.78 to 4.96 | 4.78 to 4.96 | 4.78 to 4.96 |  |  |  |  |  |  |  |  |  |  |  | 
CO/N=C(/CN1CCN(c2cc3c(cc2F)c(=O)c(C(=O)O)cn3C2CC2)CC1)c1ccco1 |  |  |  | < 4.00 | < 4.00 | < 4.00 | < 4.00 | < 4.00 | < 4.00 | < 4.00 |  |  |  |  | 
CCn1cc(C(=O)O)c(=O)c2cc(F)c(N3CCN(C/C(=N/OCc4ccc(Cl)cc4)c4ccco4)CC3)cc21 |  |  |  | ≥ 5.00 | ≥ 5.00 | ≥ 5.00 | ≥ 5.00 | ≥ 5.00 | ≥ 5.00 | ≥ 5.00 |  |  |  |  | 
O=C(/C=C/c1nc2ccccc2[nH]1)c1c(-c2ccccc2)c2cc(Br)ccc2[nH]c1=O |  |  |  |  |  |  |  |  |  |  | 4.35 to 5.79 | 4.35 to 5.79 | 4.35 to 5.79 | 4.35 to 5.79 | 4.35 to 5.79
COc1ccc2c(c1)c(=O)c1ccccc1n2Cc1cn(Cc2cc(OC)c(OC)c(OC)c2)nn1 | < 4.00 | < 4.00 | < 4.00 |  |  |  |  |  |  |  |  |  |  |  | 
O=C(/C=C/c1nc2cc(F)c(F)cc2[nH]1)c1c(-c2ccc(F)cc2)c2cc(F)ccc2[nH]c1=O |  |  |  |  |  |  |  |  |  |  | 4.35 to 5.79 | 4.35 to 5.79 | 4.35 to 5.79 | 4.35 to 5.79 | 4.35 to 5.79
O=C(/C=C/c1nc2cc(F)c(F)cc2[nH]1)c1c(-c2ccc(F)c(F)c2)c2cc(F)ccc2[nH]c1=O |  |  |  |  |  |  |  |  |  |  | 4.35 to 5.79 | 4.35 to 5.79 | 4.35 to 5.79 | 4.35 to 5.79 | 4.35 to 5.79
O=C(O)c1cn(C2CC2)c2cc(N3CCN(C/C(=N/OCc4ccc(Cl)cc4)c4cccs4)CC3)c(F)cc2c1=O |  |  |  | ≥ 5.00 | ≥ 5.00 | ≥ 5.00 | ≥ 5.00 | ≥ 5.00 | ≥ 5.00 | ≥ 5.00 |  |  |  |  | 
CCc1ccc2c(c1)c(=O)c1ccccc1n2Cc1cn(Cc2cc(OC)c(OC)c(OC)c2)nn1 | < 4.00 | < 4.00 | < 4.00 |  |  |  |  |  |  |  |  |  |  |  | 
O=C(/C=C/c1nc2cc(Br)ccc2[nH]1)c1c(-c2ccccc2)c2cc(Cl)ccc2[nH]c1=O |  |  |  |  |  |  |  |  |  |  | 4.35 to 5.79 | 4.35 to 5.79 | 4.35 to 5.79 | 4.35 to 5.79 | 4.35 to 5.79
Cc1ccc2[nH]c(=O)c(C(=O)/C=C/c3nc4ccccc4[nH]3)c(-c3ccccc3)c2c1 |  |  |  |  |  |  |  |  |  |  | 4.35 to 5.79 | 4.35 to 5.79 | 4.35 to 5.79 | 4.35 to 5.79 | 4.35 to 5.79
O=C(O)c1cn(C2CC2)c2cc(N3CCN(C/C(=N/OCc4ccc(Cl)cc4)c4ccco4)CC3)c(F)cc2c1=O |  |  |  | ≥ 5.00 | ≥ 5.00 | ≥ 5.00 | ≥ 5.00 | ≥ 5.00 | ≥ 5.00 | ≥ 5.00 |  |  |  |  | 
COc1cc(Cn2cc(Cn3c4ccccc4c(=O)c4ccccc43)nn2)cc(OC)c1OC | < 4.00 | < 4.00 | < 4.00 |  |  |  |  |  |  |  |  |  |  |  | 
COc1cc(Cn2cc(Cn3c4ccccc4c(=O)c4cc(Cl)ccc43)nn2)cc(OC)c1OC | < 4.00 | < 4.00 | < 4.00 |  |  |  |  |  |  |  |  |  |  |  | 
N=c1c(-c2nn3c(-c4cn(C5CC5)c5cc(N6CCNCC6)c(F)cc5c4=O)nnc3s2)cn(C2CC2)c2cc(N3CCNCC3)c(F)cc12 |  |  |  | ≥ 5.00 | ≥ 5.00 | ≥ 5.00 | ≥ 5.00 | ≥ 5.00 | ≥ 5.00 | ≥ 5.00 |  |  |  |  | 
